Data as given in article PMC4305287, “Two Novel α7 Nicotinic Acetylcholine Receptor Ligands: In Vitro Properties and Their Efficacy in Collagen-Induced Arthritis in Mice” (PLoS ONE, 2015).
Entries after “also recorded” stand apart in the source; their conditions may differ.

How the values were obtained:
[1] = biological target: rat α7 nAChR (Rattus norvegicus, UniProt Q05941); assay: cell-based; assay type: binding
Description: Binding studies with rat α7 nAChR were done using the rat pheochromocytoma cell line PC12 that endogenously expresses the α7 nAChR (American Type Culture Collection, Manassas, VA). PC12 cells were maintained in Ham F-12 nutrient mixture, containing 15% horse serum, 2.5% fetal bovine serum (FBS), 2 mM L-glutamine, 1.5 g/L NaHCO3, 100 units of penicillin, and 100 μg streptomycin.
For the binding assay, PC12 cells were resuspended in binding buffer (phosphate buffered saline with calcium and magnesium, containing 1% FBS and 0.02% NaN3) at 1.5 to 2.7 × 10^6 cells per ml and 55 μl (0.8–1.5 × 10^5 cells per well) was added to a 96-well, v-bottom plate. […]
Phycoerythrin-labeled streptavidin (streptavidin-PE) (Becton-Dickinson, Franklin Lakes, NJ) was diluted in binding buffer and 50 μl was added to the cells (excluding the cell control) at a 1.0 μg/ml final concentration. […] BTx binding was quantified by fluorescence-activated cell sorting (FACS) analysis. For each concentration of test compound, the displacement of BTx from the α7 nAChR was quantified by measuring the intensity of the fluorescent signal. […] Ki values were calculated from IC50 values using the Cheng-Prusoff equation: Ki=IC50/1+[BTx]/KD

[2] = biological target: T1, α4β2 nAChR (Rattus norvegicus, UniProt P09483+P12390); assay: cytisine binding to rat brain membranes; conditions: read-out: Ki, α4β2nAChR binding affinity
T1 construct: tissue Cerep; host or cells: rat brain membranes
T1 sequence (P09483 31-630): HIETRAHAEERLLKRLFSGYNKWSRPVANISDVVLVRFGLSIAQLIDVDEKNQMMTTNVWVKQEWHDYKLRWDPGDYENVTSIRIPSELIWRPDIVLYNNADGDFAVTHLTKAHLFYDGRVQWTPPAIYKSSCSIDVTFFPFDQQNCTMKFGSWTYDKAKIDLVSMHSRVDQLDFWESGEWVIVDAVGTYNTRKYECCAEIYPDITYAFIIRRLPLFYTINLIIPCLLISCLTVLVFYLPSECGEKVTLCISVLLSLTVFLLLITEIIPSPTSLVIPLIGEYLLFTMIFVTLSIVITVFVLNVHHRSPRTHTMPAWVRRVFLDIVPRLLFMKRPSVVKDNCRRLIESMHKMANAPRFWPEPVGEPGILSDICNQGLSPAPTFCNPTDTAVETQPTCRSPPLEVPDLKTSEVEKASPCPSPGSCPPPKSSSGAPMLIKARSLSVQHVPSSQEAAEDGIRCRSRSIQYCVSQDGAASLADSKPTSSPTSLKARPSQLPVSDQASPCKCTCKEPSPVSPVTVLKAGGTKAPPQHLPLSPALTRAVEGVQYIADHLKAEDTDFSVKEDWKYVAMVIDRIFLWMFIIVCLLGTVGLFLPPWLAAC
T1 sequence (P12390 25-500): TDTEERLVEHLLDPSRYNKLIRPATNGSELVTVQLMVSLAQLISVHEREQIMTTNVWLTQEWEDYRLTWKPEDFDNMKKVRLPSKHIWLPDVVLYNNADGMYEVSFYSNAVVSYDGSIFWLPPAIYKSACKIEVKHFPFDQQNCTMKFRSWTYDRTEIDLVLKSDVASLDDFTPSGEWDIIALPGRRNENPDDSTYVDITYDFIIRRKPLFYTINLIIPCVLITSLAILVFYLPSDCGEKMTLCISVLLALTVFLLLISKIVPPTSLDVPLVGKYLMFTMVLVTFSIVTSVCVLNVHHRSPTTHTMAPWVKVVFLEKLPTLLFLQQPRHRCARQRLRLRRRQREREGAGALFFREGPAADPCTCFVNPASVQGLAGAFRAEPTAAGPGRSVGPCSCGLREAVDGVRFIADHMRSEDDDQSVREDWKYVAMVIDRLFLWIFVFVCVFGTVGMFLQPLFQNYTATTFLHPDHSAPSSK
Description: (§1) Broad selectivity was assessed at Cerep (Celle l’ Evescault, France), as described in the Cerep catalog, though the determination of the effect of PMP-311 and PMP-072 in in vitro radioligand receptor binding assays with 52 different receptors, channels, and transporters. The specific ligand binding to the receptors is defined as the difference between the total binding, and the nonspecific binding determined in the presence of an excess of unlabelled ligand. The results are expressed as a percent of control specific binding and as the mean percent inhibition of control specific binding obtained in the presence of 10 μM PMP-311 and PMP-072. Individual and mean values are presented in the results section. The IC50 values (concentration causing a half-maximal inhibition of control specific binding) and Hill coefficients (nH) were determined by non-linear regression as described above.

[3] = biological target: T2, α1β1 nAChR (muscle receptor) (Homo sapiens, UniProt P02708+P07510+P11230+Q07001); assay: α-bungarotoxin binding to TE671 cell membranes
T2 construct: host or cells: TE671 cell membranes
T2 sequence (P02708 21-457): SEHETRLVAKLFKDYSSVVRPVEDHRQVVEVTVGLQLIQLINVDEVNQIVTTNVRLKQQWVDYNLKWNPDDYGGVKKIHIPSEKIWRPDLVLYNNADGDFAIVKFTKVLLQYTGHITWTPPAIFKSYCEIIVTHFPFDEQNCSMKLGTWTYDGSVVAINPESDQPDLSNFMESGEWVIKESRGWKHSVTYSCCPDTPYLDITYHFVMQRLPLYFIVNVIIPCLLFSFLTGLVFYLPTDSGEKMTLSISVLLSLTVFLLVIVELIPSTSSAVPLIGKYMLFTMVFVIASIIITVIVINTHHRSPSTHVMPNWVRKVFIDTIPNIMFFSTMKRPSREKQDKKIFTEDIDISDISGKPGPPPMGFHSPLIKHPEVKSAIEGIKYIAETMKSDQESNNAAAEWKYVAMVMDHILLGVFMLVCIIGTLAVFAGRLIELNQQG
T2 sequence (Q07001 22-517): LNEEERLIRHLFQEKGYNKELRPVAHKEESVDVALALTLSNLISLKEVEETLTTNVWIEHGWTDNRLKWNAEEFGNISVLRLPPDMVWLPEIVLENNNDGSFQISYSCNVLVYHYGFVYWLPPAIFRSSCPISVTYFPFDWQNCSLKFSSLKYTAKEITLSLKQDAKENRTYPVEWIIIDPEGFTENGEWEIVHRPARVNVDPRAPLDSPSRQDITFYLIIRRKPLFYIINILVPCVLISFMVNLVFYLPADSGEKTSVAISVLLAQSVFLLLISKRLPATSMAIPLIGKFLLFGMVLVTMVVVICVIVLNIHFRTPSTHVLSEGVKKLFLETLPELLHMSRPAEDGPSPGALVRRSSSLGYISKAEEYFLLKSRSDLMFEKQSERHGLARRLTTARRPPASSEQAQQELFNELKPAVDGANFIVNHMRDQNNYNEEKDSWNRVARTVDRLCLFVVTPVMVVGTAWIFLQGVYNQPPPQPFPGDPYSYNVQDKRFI
T2 sequence (P07510 23-517): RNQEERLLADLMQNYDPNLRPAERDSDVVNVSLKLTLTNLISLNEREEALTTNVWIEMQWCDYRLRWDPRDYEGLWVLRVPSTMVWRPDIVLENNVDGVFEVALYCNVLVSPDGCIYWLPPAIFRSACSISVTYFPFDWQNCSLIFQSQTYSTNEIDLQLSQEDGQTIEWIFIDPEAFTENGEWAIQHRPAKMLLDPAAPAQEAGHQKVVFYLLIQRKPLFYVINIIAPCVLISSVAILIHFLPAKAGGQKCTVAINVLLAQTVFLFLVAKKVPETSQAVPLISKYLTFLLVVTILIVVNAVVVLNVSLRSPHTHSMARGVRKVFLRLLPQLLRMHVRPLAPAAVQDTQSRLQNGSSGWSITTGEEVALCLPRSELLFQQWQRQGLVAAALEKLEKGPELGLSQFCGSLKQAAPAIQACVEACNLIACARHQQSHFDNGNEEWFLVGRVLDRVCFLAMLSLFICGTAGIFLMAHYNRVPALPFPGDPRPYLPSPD
T2 sequence (P11230 24-501): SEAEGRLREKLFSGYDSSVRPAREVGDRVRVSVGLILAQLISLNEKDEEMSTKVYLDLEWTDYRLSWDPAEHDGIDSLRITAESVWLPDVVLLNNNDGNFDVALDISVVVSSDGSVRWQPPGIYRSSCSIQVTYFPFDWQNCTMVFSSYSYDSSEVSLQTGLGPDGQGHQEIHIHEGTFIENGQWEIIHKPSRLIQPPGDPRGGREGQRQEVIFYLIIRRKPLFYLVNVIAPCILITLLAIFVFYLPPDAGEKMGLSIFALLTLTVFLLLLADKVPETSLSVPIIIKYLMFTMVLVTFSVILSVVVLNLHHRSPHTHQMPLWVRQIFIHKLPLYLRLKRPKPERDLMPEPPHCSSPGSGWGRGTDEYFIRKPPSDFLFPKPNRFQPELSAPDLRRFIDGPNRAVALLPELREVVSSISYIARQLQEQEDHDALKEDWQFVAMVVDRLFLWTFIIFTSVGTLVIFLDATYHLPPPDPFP
Description: as §1

[4] = biological target: T3, human serotonin transporter (Homo sapiens, UniProt P31645); assay: Cerep broad selectivity radioligand binding panel
T3 construct: Cerep
T3 sequence (P31645 whole entry): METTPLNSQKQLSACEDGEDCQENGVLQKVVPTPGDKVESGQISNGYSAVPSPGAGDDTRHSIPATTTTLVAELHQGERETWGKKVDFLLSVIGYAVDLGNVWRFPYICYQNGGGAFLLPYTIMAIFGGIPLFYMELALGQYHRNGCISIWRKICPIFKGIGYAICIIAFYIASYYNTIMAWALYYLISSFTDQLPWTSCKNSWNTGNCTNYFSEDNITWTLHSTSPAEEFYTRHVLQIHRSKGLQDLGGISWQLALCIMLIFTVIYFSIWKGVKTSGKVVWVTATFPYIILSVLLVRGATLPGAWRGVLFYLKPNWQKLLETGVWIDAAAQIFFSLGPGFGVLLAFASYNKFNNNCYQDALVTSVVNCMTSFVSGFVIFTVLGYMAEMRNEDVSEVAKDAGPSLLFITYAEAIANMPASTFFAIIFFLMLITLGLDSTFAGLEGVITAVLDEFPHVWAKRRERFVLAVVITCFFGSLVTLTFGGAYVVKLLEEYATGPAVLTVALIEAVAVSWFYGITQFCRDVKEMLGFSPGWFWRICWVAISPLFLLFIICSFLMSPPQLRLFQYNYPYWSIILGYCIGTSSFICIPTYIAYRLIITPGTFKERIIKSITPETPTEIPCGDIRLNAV
Description: as §1

[5] = biological target: T4, human α7 nAChR (Homo sapiens, UniProt P36544); assay: voltage-clamp electrophysiology in Xenopus oocytes; assay type: biochemical; conditions: for agonist activity at α7 nAChR ion channel: Xenopus oocyte membrane current, control conditions
T4 construct: expressed in transfected cells; host or cells: Xenopus laevis oocytes injected with cRNA; clones from Dr. Jon Lindstrom (α7) and Dr. Millet Treinin (RIC-3)
T4 sequence (P36544 23-502): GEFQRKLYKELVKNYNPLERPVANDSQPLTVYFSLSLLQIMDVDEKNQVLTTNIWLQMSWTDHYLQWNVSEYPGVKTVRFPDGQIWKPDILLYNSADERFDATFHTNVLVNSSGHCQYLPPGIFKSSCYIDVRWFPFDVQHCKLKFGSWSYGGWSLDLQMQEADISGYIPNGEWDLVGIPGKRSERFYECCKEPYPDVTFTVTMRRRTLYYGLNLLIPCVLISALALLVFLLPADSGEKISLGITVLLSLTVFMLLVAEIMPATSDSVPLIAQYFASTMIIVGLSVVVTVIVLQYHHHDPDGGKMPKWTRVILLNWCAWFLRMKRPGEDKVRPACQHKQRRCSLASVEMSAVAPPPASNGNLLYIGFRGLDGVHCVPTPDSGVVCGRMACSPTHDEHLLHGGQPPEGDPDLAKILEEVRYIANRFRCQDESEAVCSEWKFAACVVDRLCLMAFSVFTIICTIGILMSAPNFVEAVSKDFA
Description: Human nAChR receptor clones were obtained from Dr. Jon Lindstrom (University of Pennsylvania, Philadelphia, PA). The RIC-3 clone was obtained from Dr. Millet Treinin (Hebrew University, Jerusalem, Israel). Subsequent to linearization and purification of cloned cDNAs, RNA transcripts were prepared in vitro using the appropriate mMessage Machine kit from Ambion Inc. (Austin, TX).
The preparation of Xenopus laevis oocytes for RNA expression was conducted as previously described. Stage 5 oocytes were isolated and injected with […] (5–20 ng) of each subunit cRNAs. Recordings were conducted 2–5 days after injection. RNA coding for human α7 nAChR was routinely co-injected with the cDNA for human RIC-3, an accessory protein that improves and accelerates α7 nAChR expression without affecting the pharmacological properties of the receptors.
Experiments were conducted using OpusXpress6000A (Molecular Devices, Union City, CA) as described before. ACh applications were 12 seconds in duration.
Each oocyte received two initial control applications of 300 μM ACh, followed by the experimental drug application, and subsequent control application of 300 μM ACh, unless otherwise indicated. Responses to experimental drug applications were determined relative to the preceding ACh control responses in order to normalize the data, compensating for the varying levels of channel expression among the oocytes. Responses for α7 nAChR were calculated as net charge, since peak currents inaccurately report the agonist concentration dependence of α7 nAChR-mediated responses. For experiments measuring the effects of ACh and the experimental compounds on allosterically modulated receptors, following the acquisition of baseline responses, cells were given a 60 s application of 300 μM PNU-120596. […] For all experiments, means and standard error of the mean (SEM) were calculated from the normalized responses of at least four oocytes for each experimental concentration, plotted using Kaleidagraph 3.52 (Synergy Software, Reading, PA), and curves were generated from the Hill equation: Response=IMax[agonist]^n/[agonist]^n+(EC50)^n where Imax denotes the maximal response for a particular agonist/subunit combination, and n represents the Hill coefficient. Imax, n, and the EC50 were all unconstrained for the fitting procedures except in the case of the ACh concentration-response curves.

[6] = test system: collagen-induced arthritis; assay: collagen-induced arthritis in DBA/1 mice; conditions: for disease incidence and onset: 5 mg/kg oral daily day 20-34
Description: Collagen-induced arthritis was induced and evaluated as previously described. The severity of arthritis was assessed using an established semiquantitative scoring system (0–4; 0 = normal, 1 = swelling in 1 joint, 2 = swelling in >1 joint, 3 = swelling in the entire paw, and 4 = deformity and/or ankylosis. The cumulative score for all 4 paws of each mouse was used to represent overall disease severity and progression. Hind paw ankle joint thickness was measured using a caliper For the evaluation of incidence, mice were considered to have arthritis if the arthritis score increased by at least 1 point for 2 or more following days.
In study 1, we evaluated the role of the two novel α7nAChR-specific modulators in CIA. The receptors were stimulated by oral gavage of PMP-311 (5 mg/kg; n = 15) or PMP-072 (5 mg/kg; n = 17). The compounds were administered once a day from day 20 until the end of the experiment (day 34). Control mice received saline. In study 2, we evaluated the anti-inflammatory effects of different dosages of the α7nAChR-specific agonists. PMP-311 (2 or 10 mg/kg; n = 15) and PMP-072 (10 or 20 mg/kg; n = 15) were administered in the same way as in study 1. In both studies, mice were inspected daily for signs of arthritis and thickness of hind paws was measured using a caliper from day 16 till sacrifice by 2 independent observers (MAvM and JK) who were not aware of the treatment.
Hind paws were used for radiographic evaluation. Joint destruction was scored on a scale of 0–4, where 0 = no damage, 1 = demineralization, 2 = 1 or 2 erosions, 3 = severe erosions, and 4 = complete destruction of the joints. The radiographs were scored by 2 independent observers (MAvM and MJV) in a blinded manner; minor differences in scoring between the observers were resolved by mutual agreement.
Hind paws were fixed for 24 hours in 10% buffered formalin and decalcified in 15% EDTA. The paws were then embedded in paraffin, and serial 5 μm sagittal sections of whole hind paws were cut and stained with hematoxylin and eosin (HE). Two independent observers (MAvM and MJV) assessed the tissue for the degree of synovitis by microscopic evaluation, under blinded conditions, as described previously. Synovitis was graded on a scale of 0 (no inflammation) to 3 (severely inflamed joint) based on the extent of infiltration of inflammatory cells into the synovium.
To evaluate the effects of different treatments, we determined the change in clinical arthritis scores in each mouse from the start of treatment until the end of the experiment. AUC for the change in arthritis scores were calculated. The significance of the differences in the mean changes in scores (clinical, radiologic and histologic) between groups was determined by Kruskal-Wallis test followed by Mann-Whitney U test (SPSS version 12.0.2; SPSS, Chicago, IL). Incidence was compared using Kaplan-Meier survival analysis (GraphPad Prism). P values less than 0.05 were considered statistically significant.

[7] = study 1, 5 mg/kg oral daily day 20-34

Chain of rat α7 nAChR (Q05941 23-502): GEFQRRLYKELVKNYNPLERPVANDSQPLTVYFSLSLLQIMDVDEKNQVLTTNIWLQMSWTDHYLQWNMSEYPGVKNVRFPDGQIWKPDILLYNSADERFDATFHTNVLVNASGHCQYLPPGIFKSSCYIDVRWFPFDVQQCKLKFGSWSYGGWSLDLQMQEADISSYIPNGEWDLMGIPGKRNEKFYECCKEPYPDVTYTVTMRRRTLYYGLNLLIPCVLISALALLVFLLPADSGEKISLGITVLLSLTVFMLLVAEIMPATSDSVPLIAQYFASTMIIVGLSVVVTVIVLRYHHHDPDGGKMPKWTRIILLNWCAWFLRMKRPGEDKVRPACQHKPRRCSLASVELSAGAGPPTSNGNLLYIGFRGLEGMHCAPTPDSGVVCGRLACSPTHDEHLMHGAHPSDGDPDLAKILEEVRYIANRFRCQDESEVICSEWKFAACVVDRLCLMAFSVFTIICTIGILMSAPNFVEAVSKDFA

Compound: c1cncc(OC[C@@H]2CNCCN2c2nc3ncccc3o2)c1 [PMP-311, (S)-2-(2-((Pyridin-3-yloxy)methyl)piperazin-1-yl)oxazolo[4,5-b]pyridine]
- Ki [1]: 0.9 ± 0.2 nM
- Ki [2]: 30 nM
- Ki [3]: > 100000 nM
- inhibition at 10 µM ([4]; 10 μM): 72%
- agonist activity at α7 nAChR ion channel [5]: elicited a typical inward current
- EC50 ([5]; Xenopus oocytes, read-out: EC50 of α7 nAChR activation): ~200 nM
- Emax ([5]; net charge, normalized to 300 μM ACh, read-out: maximum response compared to ACh): ~85%
- joint destruction (radiographic score) ([6]; 2 mg/kg oral daily): significant reduction in joint destruction
- mice that developed arthritis ([6]; 2 mg/kg oral daily): 14 out of 15
- paw swelling ([6]; 2 mg/kg oral daily): decreased
- reduction in arthritis score compared to saline ([6]; 2 mg/kg oral daily): 40%
- synovial inflammation ([6]; 2 mg/kg oral daily): significant reduction
- animals that did not develop arthritis ([6]; 5 mg/kg oral daily): six out of 15
- effect on arthritis activity ([6]; 5 mg/kg oral daily): amelioration of clinical signs of arthritis
- joint destruction (radiographic score) ([6]; 5 mg/kg oral daily): significant reduction in joint destruction
- synovial inflammation (HE staining of knee joints) ([6]; 5 mg/kg oral daily): significant reduction of synovial inflammation
- disease incidence and onset [6]: reduced disease incidence and delayed onset of disease
- reduction in clinical score compared to saline ([6]; 5 mg/kg oral daily, dose-response comparison): 49%
- joint destruction (radiographic score) ([6]; 10 mg/kg oral daily): significantly decreased
- reduction in arthritis score compared to saline ([6]; 10 mg/kg oral daily): 39%
- decrease in paw swelling compared to saline-treated mice [6, 7]: 39%
- decrease of AUC of clinical score compared to control mice [6, 7]: 51%

Compound: COc1ccc(NC(=O)N2CCNC[C@@H]2COc2cccnc2)cc1 [PMP-072, (R)-N-(4-methoxyphenyl)-2-((pyridin-3-yloxy)methyl)piperazine-1-carboxamide]
- Ki [1]: 6.9 ± 1.4 nM
- Ki [2]: > 100000 nM
- Ki [3]: > 100000 nM
- Ki [4]: 1800 nM
- agonist activity at α7 nAChR ion channel [5]: did not appear to be an agonist
- IC50 ([5]; co-applied with 60 μM ACh, read-out: IC50, antagonism of ACh-stimulated α7 nAChR channel activity): 20 to 50 nM
- effect on arthritis activity ([6]; 5 mg/kg oral daily): did not significantly ameliorate arthritis activity; also recorded: trend towards improvement
- joint destruction (radiographic score) ([6]; 5 mg/kg oral daily): did not reduce bone degradation
- disease incidence and onset [6]: trend towards reduced incidence of disease
- joint destruction (radiographic score) ([6]; 10 mg/kg oral daily): trend towards reduced joint destruction
- paw swelling ([6]; 10 mg/kg oral daily): decrease in paw swelling
- reduction in arthritis score compared to saline ([6]; 10 mg/kg oral daily): 48%
- synovial inflammation (synovitis score) ([6]; 10 mg/kg oral daily): significantly lower scores for synovitis
- effect on arthritis score ([6]; 20 mg/kg oral daily): no improvement
- tolerability of treatment [6, 7]: tolerated the drug treatment well
- tolerability of treatment ([6]; study 2, PMP-311 2 and 10 mg/kg, PMP-072 10 and 20 mg/kg): tolerated the drug treatments well
